We go through 6 compounds from paper PMC4567403 (Bioorganic & medicinal chemistry letters, 2015).

In data set [1] the test system is e-cadherin expression in SW620 cells. Description: In-Cell-Western. It counts as cell-based. Conditions: 10 μM compound, average of two assessments.
In the next data set the target is P450 2D6 (Homo sapiens, UniProt P10635). Description: P450 inhibition 2D6. The format is in vitro ADME. Conditions: 2D6, at 30 μM.
The nature of the next data set: Pharmacokinetics in rat. It counts as in vivo, male Sprauge- Dawley rats.
For another data set, the system named is SW620 cell lines. Conditions: cited from earlier work.
Another data set concerns the target P450 2C9 (Homo sapiens, UniProt P11712). Description: P450 inhibition 2C9. The format is in vitro ADME. Conditions: 2C9, at 30 μM.
In the next data set the target is P450 3A4 (Homo sapiens, UniProt P08684). Description: P450 inhibition 3A4. It counts as in vitro ADME. Conditions: 3A4, at 30 μM.
Chain of P450 3A4 (P08684 whole entry): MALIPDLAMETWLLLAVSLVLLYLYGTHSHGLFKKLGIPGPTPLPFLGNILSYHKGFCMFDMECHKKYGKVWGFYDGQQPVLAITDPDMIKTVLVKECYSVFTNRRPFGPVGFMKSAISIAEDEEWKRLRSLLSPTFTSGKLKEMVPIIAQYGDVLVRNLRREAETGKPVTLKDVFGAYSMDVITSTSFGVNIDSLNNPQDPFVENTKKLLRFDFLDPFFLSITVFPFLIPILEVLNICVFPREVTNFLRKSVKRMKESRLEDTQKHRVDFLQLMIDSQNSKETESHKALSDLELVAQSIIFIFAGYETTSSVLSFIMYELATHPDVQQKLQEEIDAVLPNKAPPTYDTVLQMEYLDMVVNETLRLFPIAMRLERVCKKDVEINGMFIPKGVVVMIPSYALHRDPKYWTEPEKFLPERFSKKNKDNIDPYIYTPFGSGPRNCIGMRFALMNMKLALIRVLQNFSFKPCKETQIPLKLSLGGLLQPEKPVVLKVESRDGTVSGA
Another data set has as its target T1, P450 1A2 (Homo sapiens, UniProt P05177).
T1 sequence (P05177 1-516): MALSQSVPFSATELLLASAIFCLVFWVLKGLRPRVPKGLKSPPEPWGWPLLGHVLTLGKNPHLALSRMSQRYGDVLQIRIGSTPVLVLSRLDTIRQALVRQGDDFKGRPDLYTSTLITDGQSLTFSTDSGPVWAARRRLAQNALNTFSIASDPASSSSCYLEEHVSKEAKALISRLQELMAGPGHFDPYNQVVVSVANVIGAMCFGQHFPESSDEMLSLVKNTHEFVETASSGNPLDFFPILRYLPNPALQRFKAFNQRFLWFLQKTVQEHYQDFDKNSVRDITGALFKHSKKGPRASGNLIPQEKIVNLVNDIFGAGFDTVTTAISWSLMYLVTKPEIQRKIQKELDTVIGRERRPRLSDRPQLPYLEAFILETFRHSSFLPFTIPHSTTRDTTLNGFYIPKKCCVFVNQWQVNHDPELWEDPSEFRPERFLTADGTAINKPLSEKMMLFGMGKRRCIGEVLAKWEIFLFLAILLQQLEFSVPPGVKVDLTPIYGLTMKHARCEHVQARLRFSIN
Description: P450 inhibition 1A2. The format is in vitro ADME. The conditions noted are these: 1A2, at 30 μM.

The nature of data set [2]: Microsomal intrinsic clearance, human. The conditions noted are these: human microsomal studies, in words. The format is in vitro ADME.
Data set [3] in a line: Microsomal intrinsic clearance, mouse. The conditions noted are these: in words. The format is in vitro ADME.

Chain of P450 2D6 (P10635 whole entry): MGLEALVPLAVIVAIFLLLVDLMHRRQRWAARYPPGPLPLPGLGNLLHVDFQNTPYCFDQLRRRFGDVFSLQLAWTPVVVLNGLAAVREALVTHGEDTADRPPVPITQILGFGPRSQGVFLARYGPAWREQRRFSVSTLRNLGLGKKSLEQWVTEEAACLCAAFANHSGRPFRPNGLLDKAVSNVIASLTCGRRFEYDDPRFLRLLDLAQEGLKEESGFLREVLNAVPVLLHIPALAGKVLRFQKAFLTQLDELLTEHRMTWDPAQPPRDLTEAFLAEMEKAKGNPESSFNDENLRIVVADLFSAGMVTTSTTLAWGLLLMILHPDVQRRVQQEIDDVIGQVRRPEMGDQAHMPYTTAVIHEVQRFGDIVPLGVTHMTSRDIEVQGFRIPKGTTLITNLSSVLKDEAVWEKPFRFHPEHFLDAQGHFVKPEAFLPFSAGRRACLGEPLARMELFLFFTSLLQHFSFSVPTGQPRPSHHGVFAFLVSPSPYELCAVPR
Chain of P450 2C9 (P11712 whole entry): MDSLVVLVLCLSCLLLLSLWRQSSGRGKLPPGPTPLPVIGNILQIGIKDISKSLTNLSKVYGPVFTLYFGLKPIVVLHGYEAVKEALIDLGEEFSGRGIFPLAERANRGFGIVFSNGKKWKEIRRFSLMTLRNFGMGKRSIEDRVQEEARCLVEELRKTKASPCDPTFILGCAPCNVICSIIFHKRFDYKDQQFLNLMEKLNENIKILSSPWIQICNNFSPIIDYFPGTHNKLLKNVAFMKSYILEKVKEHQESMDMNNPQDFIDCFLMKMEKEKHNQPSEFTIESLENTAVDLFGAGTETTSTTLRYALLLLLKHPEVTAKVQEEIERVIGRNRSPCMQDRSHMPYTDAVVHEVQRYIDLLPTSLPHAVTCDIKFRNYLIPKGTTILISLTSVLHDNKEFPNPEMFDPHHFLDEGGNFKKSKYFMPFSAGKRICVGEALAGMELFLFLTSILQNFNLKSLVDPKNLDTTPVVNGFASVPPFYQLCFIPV

As for `O=C(NCCCN1CCOCC1)c1n[nH]c2ccccc12` [compound 4], in data set [1], the “Fold change of e-cadherin expression” value is recorded as “failed to demonstrate significant restoration”.

In the case of `Cc1c(C(=O)NCCCCc2ccncc2)nn(C)c1-c1ccccc1` [compound 6], the “Fold change of e-cadherin expression” value in data set [1] is recorded as “failed to demonstrate significant restoration”.

`O=C(NCCCn1ccnc1)c1noc2ccccc12` [compound 3]: in [1], the “Fold change of e-cadherin expression” value is “failed to demonstrate significant restoration”.

Turning to `Cn1nc(C(=O)NCCCCc2ccncc2)cc1-c1ccccc1` [compound 5], the “Fold change of e-cadherin expression” value in data set [1] is “failed to demonstrate significant restoration”.

Regarding `O=C(NCCCCNC(=O)c1cccnc1O)c1cc(-c2ccccc2)on1` [11r], the “inhibition of P450 isozyme” value against P450 2D6, against P450 2C9, against P450 3A4 and against P450 1A2 was “No inhibition” each time. The exposure result in “Pharmacokinetics in rat” (IV and IP dosing) was “suitable”. In addition, the half life result in “Pharmacokinetics in rat” (IV dose in rat, 1 mg/kg) is on record as “long”. Also, in the data set with SW620 cell lines, the EMT phenotype entry is “capable of reversing the EMT phenotype”. Besides, the invasive potential entry in the data set on SW620 cell lines is recorded as “reducing the invasive potential”. Moreover, the intrinsic clearance entry in data set [2] was “neglible”. For the same compound, the mouse clearance result in data set [3] is given as “well in excess of hepatic blood flow”.

As for `CC(CNC(=O)c1cc(-c2cccs2)on1)c1ccncc1` (stereo not drawn) [compound 7], the “Fold change of e-cadherin expression” value in data set [1] is “failed to demonstrate significant restoration”.
